Laboratory results reported in patent publication US20200131669A1, “CYCLIC PEPTIDE COMPOUND HAVING HIGH MEMBRANE PERMEABILITY, AND LIBRARY CONTAINING SAME” (Chugai Seiyaku Kabushiki Kaisha, priority 2017, published 2020).
Starred links: 1 amine or outer side, 2 acyl side, 3 side chain; linkers in the order of their positions; H or OH if unused. Positions of bridges follow the written chain, without caps; N, C: chain ends. Non-standard residues stand in square brackets, D forms with d. Residues, ends and D or L forms follow the SMILES beside them. *: point of attachment. NMeAbu(3,3-F2-piperidino) = CN[C@@H](CCN1CCCC(F)(F)C1)C(=O)O; X10 = O=C([C@H]1C[C@@H](N2CCC(F)(F)CC2)CN1[*:1])[*:2]; X13 = O=C([C@@H]1C[C@H](N2CCC(F)(F)CC2)CN1[*:1])[*:2]; NMeAla(4-thiazolyl) = CN[C@@H](Cc1cscn1)C(=O)O; NMePhe(3-Cl) = CN[C@@H](Cc1cccc(Cl)c1)C(=O)O; hPhe(3-Cl) = N[C@@H](CCc1cccc(Cl)c1)C(=O)O; hPhe(4-Cl) = N[C@@H](CCc1ccc(Cl)cc1)C(=O)O; Ethyl(2-morpholino) = C1CN(CC*)CCO1; NMeF = CN[C@@H](Cc1ccccc1)C(=O)O; NMeI = CC[C@H](C)[C@H](NC)C(=O)O; CH2CONHtBu = CC(C)(C)NC(=O)C*; NMeL = CN[C@@H](CC(C)C)C(=O)O; dNMeL = CN[C@H](CC(C)C)C(=O)O; Propyl(2R-OH) = C[C@@H](O)C*; dNMeAbu = CC[C@@H](NC)C(=O)O; NMeV = CN[C@H](C(=O)O)C(C)C; NMeAbu = CC[C@H](NC)C(=O)O; hSer = N[C@@H](CCO)C(=O)O; NMeA = CN[C@@H](C)C(=O)O; Piperidide = C1CCN(*)CC1; dAbu = CC[C@@H](N)C(=O)O; CH2CMe2OH = CC(C)(O)C*; NBuGly = CCCCNCC(=O)O; NPrGly = CCCNCC(=O)O; Ethyl(2-OH) = OCC*; X2 = Fc1cncc(C*)c1; Sar = CNCC(=O)O; tBu = CC(C)(C)*; CHF2 = FC(F)*

Each compound was assayed on Caco-2 cells (assay: Caco-2 membrane permeability, improved method as used in the following Examples (96-well, 20 to 24 h preincubation)). Conditions: human, Caco-2, 180 min.
Type: in vitro ADME
Summary of the method: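 Caco-2 monolayers were grown three weeks and preincubated 20–24 h at 37 °C with compound in DMEM+FaSSIF (1% DMSO) apically. The assay then used compound in FaSSIF/HBSS (1% DMSO, pH 6.0) apically and HBSS with 4% BSA (pH 7.4) basally. Basal samples were taken at 180 min for LC/MS, and Papp (cm/sec) was calculated.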

Structure (SMILES)	Caco-2 [cm/s]
CC(C)C[C@H]1C(=O)N[C@H](C(=O)N2CCCCC2)CC(=O)N[C@H](C)C(=O)N2C[C@H](N3CCC(F)(F)CC3)C[C@@H]2C(=O)N[C@@H](COC(C)(C)C)C(=O)N(C)[C@@H](CC(C)C)C(=O)N(C)[C@@H](CC(C)C)C(=O)N(C)[C@@H](CC(C)C)C(=O)N[C@@H]([C@@H](C)O)C(=O)N(C)[C@@H](Cc2ccccc2)C(=O)N[C@@H](Cc2ccccc2)C(=O)N1C [pd457] ([dA][X10]S(tBu)[NMeL][NMeL][NMeL]T[NMeF]F[NMeL]D-Piperidide; lactam N-11)	1.1e-06
CCCCN1CC(=O)N(C)[C@@H](CC(C)C)C(=O)N[C@H](C(=O)N2CCCCC2)CC(=O)N(C)[C@@H](C)C(=O)N[C@@H](COC[C@@H](C)O)C(=O)N(C)[C@H](CC(C)C)C(=O)N(C)[C@@H](Cc2cccc(Cl)c2)C(=O)N[C@@H](CC(C)C)C(=O)N(C)[C@@H](Cc2ccccc2)C(=O)N(C)[C@@H]([C@@H](C)CC)C(=O)N[C@@H]([C@@H](C)O)C1=O [pd489] ([NMeA]S(Propyl(2R-OH))[dNMeL][NMePhe(3-Cl)]L[NMeF][NMeI]T[NBuGly][NMeL]D-Piperidide; lactam N-11)	1.1e-06
CC[C@H](C)[C@H]1C(=O)N[C@@H]([C@@H](C)O)C(=O)N(C)CC(=O)N(C)[C@@H](CC(C)C)C(=O)N[C@H](C(=O)N2CCCCC2)CC(=O)N(C)[C@@H](C(C)C)C(=O)N[C@@H](COCc2cncc(F)c2)C(=O)N(C)[C@@H](CC(C)C)C(=O)N(C)[C@@H](Cc2ccccc2)C(=O)N[C@@H](CC(C)C)C(=O)N(C)[C@@H](Cc2ccccc2)C(=O)N1C [pd347] ([NMeV]S(X2)[NMeL][NMeF]L[NMeF][NMeI]T[Sar][NMeL]D-Piperidide; lactam N-11)	1.1e-06
CCCCN1CC(=O)N(C)[C@@H](CC(C)C)C(=O)N[C@H](C(=O)N2CCCCC2)CC(=O)N(C)[C@@H](CC)C(=O)N[C@H](CC(C)C)C(=O)N(C)[C@@H](CC(C)C)C(=O)N(C)[C@@H](Cc2ccccc2)C(=O)N[C@@H](COCCN2CCOCC2)C(=O)N(C)[C@H](CC)C(=O)N(C)[C@@H](CC(C)C)C(=O)N[C@@H]([C@@H](C)O)C1=O [pd482] ([NMeAbu][dL][NMeL][NMeF]S(Ethyl(2-morpholino))[dNMeAbu][NMeL]T[NBuGly][NMeL]D-Piperidide; lactam N-11)	1.1e-06
CC(C)C[C@H]1C(=O)N[C@H](C(=O)N2CCCCC2)CC(=O)N(C)[C@@H](C)C(=O)N[C@@H](CCc2ccc(Cl)cc2)C(=O)N(C)[C@@H](CC(C)C)C(=O)N(C)[C@@H](CC(C)C)C(=O)N[C@@H](C)C(=O)N(C)[C@@H](Cc2ccccc2)C(=O)N(C)[C@@H](C(C)C)C(=O)N[C@@H]([C@@H](C)O)C(=O)N(C)CC(=O)N1C [pd361] ([NMeA][hPhe(4-Cl)][NMeL][NMeL]A[NMeF][NMeV]T[Sar][NMeL]D-Piperidide; lactam N-11)	1.1e-06
CC[C@H]1NC(=O)C[C@@H](C(=O)N2CCCCC2)NC(=O)[C@H](CC(C)C)N(C)C(=O)[C@H](Cc2ccccc2)NC(=O)[C@@H]2C[C@H](N3CCC(F)(F)CC3)CN2C(=O)[C@H]([C@@H](C)O)NC(=O)[C@H](CC(C)C)N(C)C(=O)[C@H](CC(C)C)NC(=O)[C@H](CC(C)C)N(C)C(=O)[C@H](COC(C)(C)C)NC(=O)[C@H](CC(C)C)N(C)C1=O [pd462] ([dAbu][NMeL]S(tBu)[NMeL]L[NMeL]T[X13]F[NMeL]D-Piperidide; lactam N-11)	1.1e-06
CC(C)C[C@H]1C(=O)N[C@@H](COC(C)(C)C)C(=O)N(C)[C@@H](Cc2ccccc2)C(=O)N(C)[C@@H](C(C)C)C(=O)N[C@H](C(=O)N2CCCCC2)CC(=O)N[C@H](C)C(=O)N(C)[C@@H](Cc2ccccc2)C(=O)NC(COc2cccc(Cl)c2)C(=O)N(C)[C@@H](C(C)C)C(=O)N[C@@H]([C@@H](C)O)C(=O)N(C)CC(=O)N1C (stereo partly drawn) [pd185]	2.2e-06
CC[C@H](C)[C@@H]1NC(=O)[C@H](Cc2ccccc2)N(C)C(=O)CN(C)C(=O)C[C@@H](C(=O)N2CCCCC2)NC(=O)[C@H](C(C)C)N(C)C(=O)[C@H](CCc2cccc(Cl)c2)NC(=O)[C@H](CC(C)C)N(C)C(=O)[C@H](CC(C)C)N(C)C(=O)CN(C)C(=O)[C@H]([C@@H](C)O)NC(=O)[C@H](CC(C)C)N(C)C1=O [pd358] ([Sar][NMeF]I[NMeL]T[Sar][NMeL][NMeL][hPhe(3-Cl)][NMeV]D-Piperidide; lactam N-11)	1.1e-06
CC[C@H](C)[C@H]1C(=O)N[C@@H]([C@@H](C)O)C(=O)N(C)CC(=O)N(C)[C@@H](CC(C)C)C(=O)N[C@H](C(=O)N2CCCCC2)CC(=O)N(C)[C@@H](C)C(=O)NC(COc2cccc(Cl)c2)C(=O)N(C)[C@@H](CC(C)C)C(=O)N(C)[C@@H](Cc2ccccc2)C(=O)N[C@@H](C)C(=O)N(C)[C@@H](Cc2ccccc2)C(=O)N1C (stereo partly drawn) [pd188]	1.3e-06
CCCCN1CC(=O)N(C)[C@@H](CC(C)C)C(=O)N[C@H](C(=O)N2CCCCC2)CC(=O)N(C)[C@@H](CC(C)C)C(=O)N[C@@H](CC(C)C)C(=O)N(C)[C@@H](CC(C)C)C(=O)N(C)[C@@H](Cc2cscn2)C(=O)N[C@@H](CC(C)C)C(=O)N(C)[C@@H](Cc2ccccc2)C(=O)N(C)[C@@H]([C@@H](C)CC)C(=O)N[C@@H](CCC(=O)NC)C1=O [pd465] ([NMeL]L[NMeL][NMeAla(4-thiazolyl)]L[NMeF][NMeI]E(NHMe)[NBuGly][NMeL]D-Piperidide; lactam N-11)	1.1e-06
CCCCN1CC(=O)N(C)[C@@H](Cc2ccccc2)C(=O)N(C)[C@@H](CC(C)C)C(=O)N[C@@H](CC(C)C)C(=O)N(C)[C@@H](CC(C)C)C(=O)N[C@H](C(=O)N2CCCCC2)CC(=O)N(C)CC(=O)N(C)[C@@H](CC)C(=O)N[C@@H](C(C)C)C(=O)N(C)[C@@H](CC(C)C)C(=O)N[C@@H](COCCN2CCOCC2)C1=O [pd486] ([Sar][NMeAbu]V[NMeL]S(Ethyl(2-morpholino))[NBuGly][NMeF][NMeL]L[NMeL]D-Piperidide; lactam N-11)	1.1e-06
CC(C)C[C@H]1C(=O)N[C@@H](COC(C)(C)C)C(=O)N(C)[C@@H](Cc2ccccc2)C(=O)N(C)[C@@H](CC(C)C)C(=O)N[C@H](C(=O)N2CCCCC2)CC(=O)N[C@H](C(C)C)C(=O)N(C)[C@@H](C(C)C)C(=O)N[C@@H](Cc2ccc(OC(F)F)cc2)C(=O)N(C)[C@@H](CC(C)C)C(=O)N[C@@H]([C@@H](C)O)C(=O)N(C)CC(=O)N1C [pd476] ([dV][NMeV]Y(CHF2)[NMeL]T[Sar][NMeL]S(tBu)[NMeF][NMeL]D-Piperidide; lactam N-11)	1.1e-06
CCCN1CC(=O)N(C)[C@@H](CC(C)C)C(=O)N[C@@H](CC(C)C)C(=O)N(C)[C@@H](Cc2ccccc2)C(=O)N(C)[C@@H](C)C(=O)N[C@H](C(=O)N2CCCCC2)CC(=O)N[C@H](CC(C)C)C(=O)N(C)[C@@H](Cc2ccccc2)C(=O)N[C@@H](COCC(=O)NC(C)(C)C)C(=O)N(C)[C@@H](CC(C)C)C(=O)N[C@@H]([C@@H](C)O)C1=O [pd442] ([dL][NMeF]S(CH2CONHtBu)[NMeL]T[NPrGly][NMeL]L[NMeF][NMeA]D-Piperidide; lactam N-11)	1.1e-06
CC(C)C[C@@H]1NC(=O)[C@H](CCN2CCCC(F)(F)C2)N(C)C(=O)[C@@H](C(C)C)NC(=O)C[C@@H](C(=O)N2CCCCC2)NC(=O)[C@H](C)N(C)C(=O)[C@H](Cc2cccc(Cl)c2)N(C)C(=O)[C@H](CC(C)C)NC(=O)[C@H](CC(C)C)N(C)C(=O)CN(C)C(=O)[C@H]([C@@H](C)O)NC(=O)[C@H](Cc2ccccc2)N(C)C1=O [pd389] ([dV][NMeAbu(3,3-F2-piperidino)]L[NMeF]T[Sar][NMeL]L[NMePhe(3-Cl)][NMeA]D-Piperidide; lactam N-11)	1.1e-06
CCCCN1CC(=O)N(C)[C@@H](Cc2ccccc2)C(=O)N(C)[C@@H](CC(C)C)C(=O)N[C@@H](COC(C)(C)C)C(=O)N(C)[C@@H](CC(C)C)C(=O)N[C@H](C(=O)N2CCCCC2)CC(=O)N(C)CC(=O)N(C)[C@@H](Cc2ccccc2)C(=O)N[C@@H](C(C)C)C(=O)N(C)[C@@H](CC(C)C)C(=O)N[C@@H](COCCO)C1=O [pd501] ([Sar][NMeF]V[NMeL]S(Ethyl(2-OH))[NBuGly][NMeF][NMeL]S(tBu)[NMeL]D-Piperidide; lactam N-11)	1.1e-06
CCCN1CC(=O)N(C)[C@@H](Cc2ccccc2)C(=O)N[C@@H]([C@@H](C)CC)C(=O)N(C)[C@@H](CC(C)C)C(=O)N[C@@H]([C@@H](C)O)C(=O)N(CCC)CC(=O)N(C)[C@@H](Cc2ccccc2)C(=O)N(C)[C@@H](CC(C)C)C(=O)N[C@@H](COCC(C)(C)O)C(=O)N(C)[C@@H](C(C)C)C(=O)N[C@H](C(=O)N2CCCCC2)CC1=O [pd431] ([NPrGly][NMeF]I[NMeL]T[NPrGly][NMeF][NMeL]S(CH2CMe2OH)[NMeV]D-Piperidide; lactam N-11)	1.1e-06
CC[C@H](C)[C@H]1C(=O)N[C@@H]([C@@H](C)O)C(=O)N(C)CC(=O)N(C)[C@@H](CC(C)C)C(=O)N[C@H](C(=O)N2CCCCC2)CC(=O)N(C)[C@@H](C(C)C)C(=O)N[C@@H](COC[C@@H](C)O)C(=O)N(C)[C@H](CC(C)C)C(=O)N(C)[C@@H](Cc2cccc(Cl)c2)C(=O)N[C@@H](CC(C)C)C(=O)N(C)[C@@H](Cc2ccccc2)C(=O)N1C [pd491] ([NMeV]S(Propyl(2R-OH))[dNMeL][NMePhe(3-Cl)]L[NMeF][NMeI]T[Sar][NMeL]D-Piperidide; lactam N-11)	1.1e-06
CCCCN1CC(=O)N(C)[C@@H](Cc2ccccc2)C(=O)N(C)[C@@H](CC(C)C)C(=O)N[C@@H](CC(C)C)C(=O)N(C)[C@@H](CC(C)C)C(=O)N[C@H](C(=O)N2CCCCC2)CC(=O)N(C)CC(=O)N(C)[C@@H](Cc2ccccc2)C(=O)N[C@@H](CCOCC)C(=O)N(C)[C@@H](CC(C)C)C(=O)N[C@@H]([C@@H](C)O)C1=O [pd445] ([Sar][NMeF][hSer](Et)[NMeL]T[NBuGly][NMeF][NMeL]L[NMeL]D-Piperidide; lactam N-11)	1.1e-06
